Source: patent publication US10525115B2 (Immatics Biotechnologies GmbH, priority 2014, dated 2020)

Experiments:
[1] = system: MHC class I; experiment: MHC class I binding assay (UV-exchange, β2m ELISA); design: species or system human; conditions: yield of UV-exchange reaction
Method: Candidate peptides for T cell based therapies according to the present invention were further tested for their MHC binding capacity (affinity). The individual peptide-MHC complexes were produced by exchange with the peptide of interest as analyzed. Only peptide candidates that can effectively bind and stabilize the peptide-receptive MHC molecules prevent dissociation of the MHC complexes. To determine the yield of the exchange reaction, an ELISA was performed based on the detection of the light chain (β2m) of stabilized MHC complexes. The assay was performed as generally described in Rodenko et al. (Rodenko, B. et al., Nat Protoc. 1 (2006): 1120-1132).
96 well MAXISorp plates (NUNC) were coated over night with 2 ug/ml streptavidin in PBS at room temperature, washed 4× and blocked for 1 h at 37° C. in 2% BSA containing blocking buffer. Refolded HLA-A*0201/MLA-001 monomers served as standards, covering the range of 15-500 ng/ml. Peptide-MHC monomers of the UV-exchange reaction were diluted 100 fold in blocking buffer. Samples were incubated for 1 h at 37° C., washed four times, incubated with 2 μg/ml HRP conjugated anti-β2m for 1 h at 37° C., washed again and detected with TMB solution that is stopped with […]. Absorption was measured at 450 nm. Candidate peptides that show a high exchange yield (preferably higher than 50%, most preferred higher than 75%) are generally preferred for a generation and production of antibodies or fragments thereof, and/or T cell receptors or fragments thereof, as they show sufficient avidity to the MHC molecules and prevent dissociation of the MHC complexes.
MHC class I binding scores for the peptides as tested were; <20%=+; 20%-49%=++; 50%−75%=+++; >=75%=++++

[2] = system: HLA-DR haplotypes; experiment: REVEAL MHC-peptide binding assay, panel of seven HLA-DR haplotypes; design: species or system human; conditions: for number of formed HLA-peptide complexes stable for at least 24 h: of 5 formed complexes, 37° C.; for number of HLA-DR haplotypes with considerable binding capacity / number of HLA-DR haplotypes with which a complex was formed: of 7 investigated HLA-DR haplotypes
Method: (§1) The promiscuous binding of GALNT7-001 and ERGIC1-001 to various HLA-DR haplotypes and the stability of the formed complexes was assessed in an in vitro binding assay.
(§2) The seven investigated HLA-DR haplotypes are selected according to their frequencies in HLA-A*02- and HLA-A*24-positive North American populations. Data are derived from the analysis of 1.35 million HLA-typed volunteers registered in the National Marrow Donor Program (Mori M, Beatty P G, Graves M, Boucher K M, Milford E L (1997). HLA gene and haplotype frequencies in the North American population: the National Marrow Donor Program Donor Registry. Transplantation 64, 1017-1027). The analyzed population was subdivided in the following ethnic groups: Caucasian Americans (N=997,193), African Americans (N=110,057), Asian Americans (N=81,139), Latin Americans (N=100,128), and Native Americans (N=19,203).
(§3) The MHC-peptide binding assay as used determined the ability of each candidate peptide to bind to the selected HLA class II haplotype and stabilize the HLA-peptide complex. For this, the candidate peptides are assembled in vitro with a particular HLA class II protein.
(§4) The binding capacity of a candidate peptide to a particular HLA molecule is compared to a reference peptide with known very strong binding properties (positive control) for each HLA haplotype. Experimental standard errors derive from binding experiments of triplicated positive controls.
(§5) Besides the affinity of a peptide to a particular HLA molecule, the enduring stability of the formed HLA-peptide complex is crucial for the occurrence of an immune response. For this reason the presence of the formed HLA-peptide complex is measured after its incubation for 24 h at 37° C. The stability of the formed MHC-peptide complex is calculated as a ratio of the binding scores at 24 h and the binding scores which are received right after the refolding (accordingly at time 0) in percent.

[3] = biological target: HLA-DR2 (Homo sapiens, UniProt P01903+P01911); experiment: REVEAL MHC-peptide binding assay; conditions: for binding / complex formation: HLA-DR2
HLA-DR2, sequence (P01903 26-216 limits assumed): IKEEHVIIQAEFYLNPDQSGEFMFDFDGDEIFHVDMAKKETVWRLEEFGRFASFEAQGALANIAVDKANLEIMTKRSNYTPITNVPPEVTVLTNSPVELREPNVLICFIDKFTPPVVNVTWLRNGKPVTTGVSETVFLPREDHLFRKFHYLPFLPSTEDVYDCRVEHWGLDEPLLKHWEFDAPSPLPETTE
HLA-DR2, sequence (P01911 30-227 limits assumed): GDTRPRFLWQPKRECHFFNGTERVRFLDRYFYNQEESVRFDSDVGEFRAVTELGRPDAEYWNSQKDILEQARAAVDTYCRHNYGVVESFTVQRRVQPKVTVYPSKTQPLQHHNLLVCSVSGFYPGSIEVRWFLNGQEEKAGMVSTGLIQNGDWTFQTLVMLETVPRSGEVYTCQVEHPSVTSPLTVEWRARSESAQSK
Method: as §1, §2, §3, §4, §5

[4] = system: HLA-DR4; experiment: REVEAL MHC-peptide binding assay; design: species or system human; conditions: for binding / complex formation: HLA-DR4; for stability of the formed HLA-peptide complex: HLA-DR4, after 24 h at 37° C.; for binding score: HLA-DR4, compared to the positive control, over 15% = strong binding
Method: as §1, §2, §3, §4, §5

[5] = system: HLA-DR1; experiment: REVEAL MHC-peptide binding assay; design: species or system human; conditions: for binding / complex formation: HLA-DR1; for stability of the formed HLA-peptide complex: HLA-DR1, after 24 h at 37° C.
Method: as §1, §2, §3, §4, §5

[6] = system: HLA-DR5; experiment: REVEAL MHC-peptide binding assay; design: species or system human; conditions: for binding / complex formation: HLA-DR5; for stability of the formed HLA-peptide complex: HLA-DR5, after 24 h at 37° C.
Method: as §1, §2, §3, §4, §5

[7] = system: HLA-DR6; experiment: REVEAL MHC-peptide binding assay; design: species or system human
Method: as §1, §2, §3, §4, §5

[8] = system: HLA-DR3; experiment: REVEAL MHC-peptide binding assay; design: species or system human
Method: as §1, §2, §3, §4, §5

[9] = system: HLA-DR7; experiment: REVEAL MHC-peptide binding assay; design: species or system human; conditions: for binding / complex formation: HLA-DR7; for stability of the formed HLA-peptide complex: HLA-DR7, after 24 h at 37° C.
Method: as §1, §2, §3, §4, §5

[10] = system: healthy donor PBMC; experiment: Cross-checking IFN-γ ELISPOT assay, HLA class II LiTAPs, healthy donor PBMC; format: cell-based, human; conditions: HLA class II peptide
Method: (§6) PBMC from AML patients and healthy volunteers were cultured in RPMI1640 medium (Gibco) supplemented with 10% pooled human serum (PHS, produced in-house), […] β-mercaptoethanol (Roth, Karlsruhe, Germany) and 1% penicillin/streptomycin (GE). For CD8^+ T cell stimulation, PBMC were thawed and pulsed with 1 μg/ml per peptide. Peptide-pulsed PBMC (5-6×10^6 cells/ml) were cultured at 37° C. and 5% CO2 for 12 days. On day 0 and day 1, 5 ng/ml IL-4 (R&D Systems, Minneapolis, Minn., USA) and 5 ng/ml IL-7 (Promokine, Heidelberg, Germany) were added to the culture medium. On days 3, 5, 7 and 9, 2 ng/ml IL-2 (R&D Systems) were added to the culture medium. Peptide-stimulated PBMC were functionally characterized by ELISPOT assays on day 12 and by intracellular cytokine staining on day 13 respectively. For CD4^+ T-cell stimulation, culture was performed as described for CD8^+ T cells with 2 modifications: pulsing was carried out with 10 μg/ml of HLA class II peptide and no IL-4 and IL-7 was added.
(§7) IFN-γ ELISPOT assays were carried out as described previously (Widenmeyer M, Griesemann H, Stevanovic S, Feyerabend S, Klein R, Attig S, et al. Promiscuous survivin peptide induces robust CD4+ T-cell responses in the majority of vaccinated cancer patients. Int J Cancer. 2012 Jul. 1; 131(1):140-9). In brief, 96-well nitrocellulose plates (Millipore) were coated with 1 mg/ml IFN-γ mAb (Mabtech, Cincinnati, Ohio, USA) and incubated over night at 4° C. Plates were blocked with 10% PHS for 2 h at 37° C. 5×10^5 cells/well of pre-stimulated PBMC were pulsed with 1 μg/ml (HLA class I) or 2.5 μg/ml (HLA class II) peptide and incubated for 24-26 h. Readout was performed according to manufacturer's instructions. Spots were counted using an ImmunoSpot S5 analyzer (CTL, Shaker Heights, Ohio, USA). T cell responses were considered to be positive when >15 spots/well were counted and the mean spot count per well was at least 3-fold higher than the mean number of spots in the negative control wells (according to the cancer immunoguiding program (CIP) guidelines).

[11] = system: AML patient PBMC; experiment: 12-day recall IFN-γ ELISPOT assay, HLA class II LiTAPs, AML patient PBMC; format: cell-based, human; conditions: HLA class II peptide
Method: as §6, §7

36 (SLLYKVPYV; listed as Homo sapiens) [compound 36]
Peptide exchange (MHC class I binding score) [1]: ++++ (>=75%=++++)

54 (AVIEAEKIAQV; listed as Homo sapiens) [compound 54]
Peptide exchange (MHC class I binding score) [1]: ++++ (>=75%=++++)

251 (VLGGKAFLEHL; listed as Homo sapiens) [compound 251]
Peptide exchange (MHC class I binding score) [1]: ++++ (>=75%=++++)

266 (KLQEQLAQL; listed as Homo sapiens) [compound 266]
Peptide exchange (MHC class I binding score) [1]: ++++ (>=75%=++++)

FEGQFSINKVPGNFHVS (listed as Homo sapiens) [SEQ ID NO 604]
number of formed HLA-peptide complexes stable for at least 24 h [2]: 4
number of HLA-DR haplotypes with considerable binding capacity [2]: at least 2
number of HLA-DR haplotypes with which a complex was formed [2]: 5
binding / complex formation [3]: form a complex
binding / complex formation [4]: form a complex
stability of the formed HLA-peptide complex [4]: stable
binding score [4]: ≥ 15%
binding / complex formation [5]: form a complex
stability of the formed HLA-peptide complex [5]: stable
binding / complex formation [6]: form a complex
stability of the formed HLA-peptide complex [6]: stable
binding score ([6]; HLA-DR5, compared to the positive control, over 15% = strong binding): ≥ 15%
binding / complex formation [7]: did not bind
binding / complex formation [8]: did not bind
binding / complex formation [9]: form a complex
stability of the formed HLA-peptide complex [9]: stable

GNQLFRINEANQLMQ (listed as Homo sapiens) [SEQ ID NO 597]
number of formed HLA-peptide complexes stable for at least 24 h [2]: 4
number of HLA-DR haplotypes with considerable binding capacity [2]: at least 4
number of HLA-DR haplotypes with which a complex was formed [2]: 5
binding / complex formation [3]: form a complex
binding score ([3]; HLA-DR2, compared to the positive control, over 15% = strong binding): over 15%
binding / complex formation [4]: form a complex
stability of the formed HLA-peptide complex [4]: stable
binding score [4]: over 15%
binding / complex formation [5]: form a complex
stability of the formed HLA-peptide complex [5]: stable
binding score ([5]; HLA-DR1, compared to the positive control, over 15% = strong binding): over 15%
binding / complex formation [6]: form a complex
stability of the formed HLA-peptide complex [6]: stable
binding / complex formation [7]: did not bind
binding / complex formation [8]: did not bind
binding / complex formation [9]: form a complex
stability of the formed HLA-peptide complex [9]: stable
binding score ([9]; HLA-DR7, compared to the positive control, over 15% = strong binding): over 15%

HRSFVDLSGHNLANPHP (listed as Homo sapiens) [SEQ ID NO 478]
IFN-γ secretion in ELISPOT, healthy donor PBMC (positive/tested) [10]: 0/8
T cell responses (IFN-γ ELISPOT), share of AML patients [11]: 26.7%
T cell responses (IFN-γ ELISPOT) in AML patients (positive/tested) ([11]; listed as PII1): significant increase in IFN-γ production
T cell responses (IFN-γ ELISPOT) in AML patients (positive/tested) ([11]; listed as P^II1): 4/15

SPNIVIALSGNKADLA (listed as Homo sapiens) [SEQ ID NO 558]
IFN-γ secretion in ELISPOT, healthy donor PBMC (positive/tested) [10]: 0/8
T cell responses (IFN-γ ELISPOT), share of AML patients [11]: 20.0%
T cell responses (IFN-γ ELISPOT) in AML patients (positive/tested) ([11]; listed as P[[I]]II2): significant increase in IFN-γ production
T cell responses (IFN-γ ELISPOT) in AML patients (positive/tested) ([11]; listed as P^II2): 3/15

TEGQFVDLTGNRLTYT (listed as Homo sapiens) [SEQ ID NO 544]
IFN-γ secretion in ELISPOT, healthy donor PBMC (positive/tested) [10]: 0/8
T cell responses (IFN-γ ELISPOT), share of AML patients [11]: 13.3%
T cell responses (IFN-γ ELISPOT) in AML patients (positive/tested) ([11]; listed as P[[I]]II3): significant increase in IFN-γ production
T cell responses (IFN-γ ELISPOT) in AML patients (positive/tested) ([11]; listed as P^II3): 2/15
